{"source": "patent US7402577B2", "about": "“Androstane 17-beta-carboxamides as androgen receptor modulators” (priority 2001, dated 2008)", "origin": "cited, not measured here", "key": {"spinal BMD": {"system": "spinal BMD", "conditions": "after 7 years of treatment"}, "fractures": {"system": "fractures", "conditions": "postmenopausal osteoporotic women, median of 22 months of treatment"}}}
{"compound": "NCCCC(O)(P(=O)([O-])O)P(=O)(O)O.O.O.O.[Na+]", "note": "[alendronate, (4-amino-1-hydroxybutylidene)-bis-phosphonate monosodium trihydrate]", "values": [{"measurement": "increase in spinal BMD", "setting": "spinal BMD", "value": "≤ 11", "unit": "%"}]}
{"compound": "hPTH(1-34): human parathyroid hormone 1-34 fragment (SVSEIQLMHNLGKHLNSMERVEWLRKKLQDVHNF; Parathyroid hormone; UniProt P01270 32-65, looked up, fragment)", "values": [{"measurement": "reduction in nonvertebral fractures", "setting": "fractures", "value": 54, "unit": "%"}, {"measurement": "reduction in spine fractures", "setting": "fractures", "value": "≥ 65", "unit": "%"}]}
